In EP0099122A2, “Compositions comprising pepstatin and an histamine H2-receptor antagonist having an enhanced antiulcer activity” (Bristol-Myers Company, priority 1982, dated 1984):
Entries after “also recorded” stand apart in the source; their conditions may differ. Square brackets hold non-standard residues; d marks the D form. Peptide text beside a SMILES is read from it. * marks the point of attachment. Sta = CC(C)C[C@H](N)[C@@H](O)CC(=O)O; Isovaleryl = CC(C)CC(=O)*

Columns and labels:
[1] = test system: pylorus ligated rat; assay: Pylorus ligated (Shay) rat; format: in vivo; details: 20 mg/kg po, 18 hour pylorus ligated rat, previous studies of the applicant
Description: The role of the proteolytic enzyme, pepsin, in the etiology of ulceration is not completely understood. […] It is also possible that pepsin is entirely responsible for the erosions and that the acid produces pain and retards healing. • 1) Umezawa, H. et al., in J. Antibiotics, 23, 259-262 (1970), disclose the pentapeptide, pepstatin, which has the structure [drawing 4] and which is a specific complexing agent for the enzyme pepsin. […] Pepstatin was administered in 100 mg doses, given seven aimes a day, this dosage being sufficient to inhibit the peptic activity of gastric juice for 18 hours a day. […] J. Gastroent., 14, 929-932 (1979), report the results of a double-blind randomized clinical trial of pepstatin versus placebo in patients having gastric ulcer. Pepstatin was administered in 100 mg doses seven times a day. […] When the two agents were given together, significant ulcer reduction was found after only one-half day of predosing. Carbenoxolone is not an antisecretory or anti-pepsin agent, but acts by stimulating gastric mucus synthesis. • 6) Dajani, E. Z. et al., in J. Pharmacol. Exp. Ther., 210, 373-377 (1979), disclose that, in stress ulceration tests in rats, a combination of cimetidine and propantheline bromide produced synergistic antiulcer activity and that a combination of cimetidine and thiopropazate hydrochloride produced additive antiulcer activity. […]

[2] = all animal species studied; cited from earlier work
[3] = test system: gastric peptic activity; details: patients with ulcer dyspepsia, cited from earlier work
[4] = cited from earlier work
[5] = test system: pepsin; details: 100 mg doses seven times a day, ulcer patients; cited from earlier work
[6] = test system: pylorus ligated rat; details: pylorus ligated (Shay) rat, Umezawa et al.; cited from earlier work
[7] = test system: duodenal ulcer; details: 100 mg doses seven times a day versus placebo; cited from earlier work
[8] = test system: gastric ulcer; details: 100 mg doses seven times a day versus placebo; cited from earlier work
[9] = test system: pepsin activity in the gastric juice of swine; details: added to the feed at >50 ppm; cited from earlier work

For `CC(C)CC(=O)N[C@H](C(=O)N[C@H](C(=O)N[C@@H](CC(C)C)[C@@H](O)CC(=O)N[C@@H](C)C(=O)N[C@@H](CC(C)C)[C@@H](O)CC(=O)O)C(C)C)C(C)C` [Pepstatin, pepstatin] (Isovaleryl-VV[Sta]A[Sta]-OH), which pepsin activity [1] is on record?
The pepsin activity was “completely inhibited pepsin activity”.

And the ulcer formation [1]?
The ulcer formation was “antagonized ulcer formation”.

And the LD50 [2]?
The LD50 was “exceeded 3000 mg/kg”.

What about the side effects ([3]; daily oral doses of 700 mg for up to three months) of the same compound?
The side effects was “no side effects were observed”.

What about the gastric acidity [3] of the same compound?
Its gastric acidity is “has no effect on the gastric acidity”.

And the gastric peptic activity [3]?
Its gastric peptic activity is “inhibits gastric peptic activity”.

And the “excreted in the feces” value ([4]; oral administration, animal studies, within 72 hours)?
The value was “more than 90%”.

And the “absorption upon oral administration” value ([4]; oral)?
The value was “essentially unabsorbed; also recorded: only poorly absorbed”.

What about the “time for which pepsin activity was inhibited” value [5] of the same compound?
Its value is 18 hours a day.

And the “formation of stomach ulcers” value [6]?
Its value is “prevent the formation of stomach ulcers”.

And the “healing or symptomatology of duodenal ulcer” value [7]?
The value was “no significant difference between pepstatin and placebo”.

And the “healing or symptomatology of gastric ulcer” value [8]?
The value was “not able to detect any influence of pepstatin”.

And the occurrence of ulcers [9]?
The occurrence of ulcers was “prevented the occurrence of ulcers”.

And the “pepsin activity in the gastric juice” value [9]?
Its value is “inhibited pepsin activity in the gastric juice of swine”.
